According to patent publication US20230183193A1, “4-DIFLUOROMETHYL BENZOYL AMIDES WITH HERBICIDAL ACTION” (BAYER CROPSCIENCE AKTIENGESELLSCHAFT, priority 2017, published 2023):

Tests used:
Type in all cases: in vivo
Abutilon theophrasti [1] = experiment: Pre-emergence herbicidal action, ABUTH; conditions: for Herbicidal efficacy against ABUTH: comparison with WO 2011035874, Table G; for herbicidal activity ABUTH: dosage 320 g/ha, scored visually after 3 weeks vs untreated controls
Method in brief: (§1)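 Percent herbicidal activity rated by eye 3 weeks after pre-emergence soil-surface application, compared with untreated pots. Seeds sat under sandy loam; sprays carried 0.2% wetting agent.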

Alopecurus myosuroides = experiment: Pre-emergence herbicidal action, ALOMY
Method in brief: as §1

Amaranthus retroflexus [2] = experiment: Pre-emergence herbicidal action, AMARE; conditions: for Herbicidal efficacy against AMARE: comparison with WO 2011035874, Table H; for herbicidal activity AMARE: dosage 320 g/ha, scored visually after 3 weeks vs untreated controls
Method in brief: as §1

Avena fatua [3] = experiment: Pre-emergence herbicidal action, AVEFA
Method in brief: as §1

Cyperus serotinus = experiment: Pre-emergence herbicidal action, CYPES; conditions: for herbicidal activity CYPES: dosage 320 g/ha, scored visually after 3 weeks vs untreated controls
Method in brief: as §1

Matricaria inodora [4] = experiment: Pre-emergence herbicidal action, MATIN; conditions: dosage 320 g/ha, scored visually after 3 weeks vs untreated controls
Method in brief: as §1

Polygonum convolvulus = experiment: Pre-emergence herbicidal action, POLCO
Method in brief: as §1

Setaria viridis [5] = experiment: Pre-emergence herbicidal action, SETVI; conditions: for herbicidal activity SETVI: dosage 320 g/ha, scored visually after 3 weeks vs untreated controls
Method in brief: as §1

Stellaria media [6] = experiment: Pre-emergence herbicidal action, STEME; conditions: for Herbicidal efficacy against STEME: comparison with WO 2011035874, Table H; for Herbicidal activity STEME: dosage 320 g/ha, scored visually after 3 weeks vs untreated controls
Method in brief: as §1

Veronica persica [7] = experiment: Pre-emergence herbicidal action, VERPE; conditions: comparison with WO 2011035874, Table H
Excerpt: (§2) 1. Pre-Emergence Herbicidal Action Against Harmful Plants Seeds of monocotyledonous and dicotyledonous weed plants and crop plants are laid out in sandy loam soil in wood-fiber pots and covered with soil. The compounds of the invention, formulated in the form of wettable powders (WP) or as emulsion concentrates (EC), are then applied to the surface of the covering soil in the form of an aqueous suspension or emulsion at a water application rate equating to […], with addition of 0.2% wetting agent. After the treatment, the pots are placed in a greenhouse and kept under good growth conditions for the trial plants. The damage to the test plants is scored visually after a test period of 3 weeks by comparison with untreated controls (herbicidal activity in percent (%): 100% activity=the plants have died, 0% activity=like control plants).
(§3) For comparison, the herbicidal activity of numerous compounds according to the invention was tested with the structurally closest compounds known from the documents WO 2011/035874, WO 2012/028579 and WO 2012/126932, by the pre- and post-emergence method.

Viola tricolor [8] = experiment: Pre-emergence herbicidal action, VIOTR; conditions: for herbicidal activity VIOTR: dosage 320 g/ha, scored visually after 3 weeks vs untreated controls
Method in brief: as §1

Abutilon theophrasti [9] = experiment: Post-emergence herbicidal action, ABUTH; conditions: 80 g/ha; for herbicidal activity ABUTH: Table D
Method in brief: (§4)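 Herbicidal effect is rated visually as percent versus untreated plants (100% = dead, 0% = like control) about 3 weeks after spraying. Plants were sown in sandy loam in the greenhouse and sprayed on green parts at the one-leaf stage, 2 to 3 weeks post-sowing.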

Amaranthus retroflexus [10] = experiment: Post-emergence herbicidal action, AMARE; conditions: 80 g/ha; for herbicidal activity AMARE: Table D
Method in brief: as §4

Matricaria inodora [11] = experiment: Post-emergence herbicidal action, MATIN
Protocol: (§5) Seeds of monocotyledonous and dicotyledonous weed and crop plants are laid out in sandy loam soil in wood-fiber pots, covered with soil and cultivated in a greenhouse under good growth conditions. 2 to 3 weeks after sowing, the test plants are treated at the one-leaf stage. The compounds of the invention, formulated in the form of wettable powders (WP) or as emulsion concentrates (EC), are then sprayed onto the green parts of the plants in the form of an aqueous suspension or emulsion at a water application rate equating to […], with addition of 0.2% wetting agent. After the test plants have been left to stand in the greenhouse under optimal growth conditions for about 3 weeks, the action of the preparations is assessed visually in comparison to untreated controls (herbicidal action in percent (%): 100% activity=the plants have died, 0% activity=like control plants). […] At the same time, inventive compounds leave Gramineae crops such as barley, wheat, rye, millet/sorghum, corn or rice virtually undamaged when applied post-emergence, even at high active compound dosages. In addition, some substances are also harmless to dicotyledonous crops such as soya, cotton, oilseed rape, sugar beet or potatoes. Some of the compounds according to the invention have high selectivity and are therefore suitable for controlling unwanted vegetation in agricultural crops by the post-emergence method. The data of Tables C and D below illustrate, in an exemplary manner, the […] herbicidal action of the compounds according to the invention, the herbicidal activity being stated in percent.
as §3

Pharbitis purpureum = experiment: Post-emergence herbicidal action, PHBPU; conditions: 80 g/ha; for Herbicidal activity PHBPU: Table D
Method in brief: as §4

Stellaria media [12] = experiment: Post-emergence herbicidal action, STEME; conditions: 80 g/ha; for Herbicidal activity STEME: Table D
Method in brief: as §4

Veronica persica [13] = experiment: Post-emergence herbicidal action, VERPE
Protocol: as §5, §3

Viola tricolor [14] = experiment: Post-emergence herbicidal action, VIOTR; conditions: for herbicidal activity VIOTR: Table D
Method in brief: as §4

ECHCG [15] = experiment: Pre-emergence herbicidal action, ECHCG; conditions: comparison with WO 2011035874, Table G
Excerpt: as §2

Avena fatua [16] = experiment: Post-emergence herbicidal action, AVEFA
Method in brief: as §4

Setaria viridis [17] = experiment: Post-emergence herbicidal action, SETVI
Method in brief: as §4

ECHCG [18] = experiment: Post-emergence herbicidal action, ECHCG; conditions: 80 g/ha, Table C
Method in brief: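 Weed and crop plants grown in sandy loam in the greenhouse, treated at the one-leaf stage 2–3 weeks after sowing. Damage scored visually after about 3 weeks vs untreated controls (0% = control, 100% = dead).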

LOLMU = experiment: Pre-emergence herbicidal action, LOLMU; conditions: dosage 80 g/ha, Table L
[19] = 80 g/ha, comparison with WO 2011035874, Table G
[20] = 320 g/ha, comparison with WO 2011035874, Table G
[21] = 80 g/ha, comparison with WO 2011035874, Table H
[22] = 320 g/ha, comparison with WO 2011035874, Table H
[23] = comparison with WO 2011035874, Table E
[24] = comparison with WO2011035874, Table F
[25] = 80 g/ha, comparison with WO 2011035874, Table E
[26] = 80 g/ha, comparison with WO2011035874, Table F
[27] = dosage 320 g/ha, scored visually after 3 weeks vs untreated controls

CSc1c(C(F)F)ccc(C(=O)Nc2nonc2C)c1C [Example 5-1]
Herbicidal efficacy against ABUTH (Abutilon theophrasti [1]; 80 g/ha): 100% | Herbicidal efficacy against ABUTH (Abutilon theophrasti [1]; 320 g/ha): 100% | herbicidal activity ABUTH (Abutilon theophrasti [1]): 100% | Herbicidal efficacy against ALOMY (Alopecurus myosuroides; [19]): 30% | Herbicidal efficacy against ALOMY (Alopecurus myosuroides; [20]): 40% | Herbicidal efficacy against AMARE (Amaranthus retroflexus [2]; 80 g/ha): 100% | Herbicidal efficacy against AMARE (Amaranthus retroflexus [2]; 320 g/ha): 100% | herbicidal activity AMARE (Amaranthus retroflexus [2]): 100% | Herbicidal efficacy against AVEFA (Avena fatua [3]; [19]): 30% | Herbicidal efficacy against AVEFA (Avena fatua [3]; [20]): 60% | Herbicidal efficacy against CYPES (Cyperus serotinus; [19]): 50% | Herbicidal efficacy against CYPES (Cyperus serotinus; [20]): 80% | herbicidal activity CYPES (Cyperus serotinus): 80% | herbicidal activity MATIN (Matricaria inodora [4]): 100% | Herbicidal efficacy against POLCO (Polygonum convolvulus; [21]): 80% | Herbicidal efficacy against POLCO (Polygonum convolvulus; [22]): 100% | Herbicidal efficacy against SETVI (Setaria viridis [5]; [19]): 80% | Herbicidal efficacy against SETVI (Setaria viridis [5]; [20]): 100% | herbicidal activity SETVI (Setaria viridis [5]): 100% | Herbicidal efficacy against STEME (Stellaria media [6]; 80 g/ha): 80% | Herbicidal efficacy against STEME (Stellaria media [6]; 320 g/ha): 90% | Herbicidal activity STEME (Stellaria media [6]): 90% | Herbicidal efficacy against VERPE (Veronica persica [7]; 80 g/ha): 100% | Herbicidal efficacy against VERPE (Veronica persica [7]; 320 g/ha): 100% | Herbicidal efficacy against VIOTR (Viola tricolor [8]; [21]): 100% | Herbicidal efficacy against VIOTR (Viola tricolor [8]; [22]): 100% | herbicidal activity VIOTR (Viola tricolor [8]): 100% | herbicidal activity ABUTH (Abutilon theophrasti [9]): 100% | Herbicidal efficacy against ABUTH (Abutilon theophrasti [9]; [23]): 100% | Herbicidal efficacy against ABUTH (Abutilon theophrasti [9]; [24]): 100% | herbicidal activity AMARE (Amaranthus retroflexus [10]): 80% | Herbicidal efficacy against AMARE (Amaranthus retroflexus [10]; [23]): 80% | Herbicidal efficacy against MATIN (Matricaria inodora [11]; [25]): 40% | Herbicidal efficacy against MATIN (Matricaria inodora [11]; [26]): 40% | Herbicidal activity PHBPU (Pharbitis purpureum): 90% | Herbicidal efficacy against PHBPU (Pharbitis purpureum; [23]): 90% | Herbicidal efficacy against PHBPU (Pharbitis purpureum; [24]): 90% | Herbicidal activity STEME (Stellaria media [12]): 100% | Herbicidal efficacy against STEME (Stellaria media [12]; [23]): 100% | Herbicidal efficacy against STEME (Stellaria media [12]; [24]): 100% | Herbicidal efficacy against VERPE (Veronica persica [13]; [25]): 100% | herbicidal activity VIOTR (Viola tricolor [14]; 80 g/ha): 100% | Herbicidal efficacy against VIOTR (Viola tricolor [14]; [25]): 100% | Herbicidal efficacy against VIOTR (Viola tricolor [14]; [26]): 100% | Herbicidal efficacy against ECHCG (ECHCG [15]; 80 g/ha): 80% | Herbicidal efficacy against ECHCG (ECHCG [15]; 320 g/ha): 100%

Cc1nnc(NC(=O)c2ccc(C(F)F)c([S+](C)[O-])c2C)o1 (stereo not drawn) [Example 7-2]
herbicidal activity ABUTH (Abutilon theophrasti [1]): 100% | Herbicidal efficacy against ALOMY (Alopecurus myosuroides; dosage 80 g/ha, Table L): 80 | herbicidal activity ALOMY (Alopecurus myosuroides; [27]): 90% | herbicidal activity AMARE (Amaranthus retroflexus [2]): 100% | Herbicidal efficacy against AVEFA (Avena fatua [3]; dosage 80 g/ha, Table L): 70 | herbicidal activity AVEFA (Avena fatua [3]; [27]): 90% | Herbicidal efficacy against CYPES (Cyperus serotinus; dosage 80 g/ha, Table L): 80 | herbicidal activity CYPES (Cyperus serotinus): 90% | herbicidal activity MATIN (Matricaria inodora [4]): 90% | Herbicidal efficacy against POLCO (Polygonum convolvulus; dosage 80 g/ha, Table L): 30 | Herbicidal efficacy against SETVI (Setaria viridis [5]; dosage 80 g/ha, Table L): 90 | herbicidal activity SETVI (Setaria viridis [5]): 100% | Herbicidal activity STEME (Stellaria media [6]): 80% | Herbicidal efficacy against VIOTR (Viola tricolor [8]; dosage 80 g/ha, Table L): 100 | herbicidal activity VIOTR (Viola tricolor [8]): 100% | herbicidal activity ABUTH (Abutilon theophrasti [9]): 100% | herbicidal activity AMARE (Amaranthus retroflexus [10]): 100% | herbicidal activity AVEFA (Avena fatua [16]; 80 g/ha, Table C): 90% | Herbicidal efficacy against AVEFA (Avena fatua [16]; dosage 20 g/ha, Table M): 70 | Herbicidal efficacy against MATIN (Matricaria inodora [11]; dosage 20 g/ha, Table M): 70 | Herbicidal activity PHBPU (Pharbitis purpureum): 90% | herbicidal activity SETVI (Setaria viridis [17]; 80 g/ha, Table C): 100% | Herbicidal efficacy against SETVI (Setaria viridis [17]; dosage 20 g/ha, Table M): 100 | Herbicidal activity STEME (Stellaria media [12]): 100% | Herbicidal efficacy against VERPE (Veronica persica [13]; dosage 20 g/ha, Table M): 100 | herbicidal activity VIOTR (Viola tricolor [14]; 80 g/ha): 100% | Herbicidal efficacy against VIOTR (Viola tricolor [14]; dosage 20 g/ha, Table M): 100 | Herbicidal activity ECHCG (ECHCG [18]): 90% | Herbicidal efficacy against LOLMU (LOLMU): 10
